Reference: ChEMBL document CHEMBL5584205 (Bioorg Med Chem Lett, 2024)
pIC50: −log10 of the molar value. Activity calls are given as the source filed them. No cut-off for these calls is given here.

Columns and labels:
Neutrophil elastase = biological target: T1, Neutrophil elastase (Homo sapiens, UniProt P08246); assay: Inhibition of human neutrophil elastase by enzymatic assay
T1 sequence (P08246 whole entry): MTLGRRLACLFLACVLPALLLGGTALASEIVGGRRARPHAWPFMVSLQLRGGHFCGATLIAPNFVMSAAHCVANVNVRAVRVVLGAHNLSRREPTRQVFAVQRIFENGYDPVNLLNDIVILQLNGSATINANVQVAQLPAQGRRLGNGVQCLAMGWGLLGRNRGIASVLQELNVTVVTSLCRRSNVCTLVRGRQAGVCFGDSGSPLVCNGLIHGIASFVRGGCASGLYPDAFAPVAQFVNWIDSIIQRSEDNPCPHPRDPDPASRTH

[1] = Inhibition of elastase release in fMLP/CB-induced human neutrophils by cell based assay; format: functional; conditions: Neutrophil
Neutrophil = assay: Inhibition of O2 generation in fMLP/CB-induced human neutrophils by cell based assay; format: functional
Homo sapiens = organism: Homo sapiens; assay: Inhibition of CG (unknown origin)
Myeloblastin = biological target: T2, Myeloblastin (Homo sapiens, UniProt P24158); assay: Inhibition of PR3 (unknown origin) activity
T2 sequence (P24158 whole entry): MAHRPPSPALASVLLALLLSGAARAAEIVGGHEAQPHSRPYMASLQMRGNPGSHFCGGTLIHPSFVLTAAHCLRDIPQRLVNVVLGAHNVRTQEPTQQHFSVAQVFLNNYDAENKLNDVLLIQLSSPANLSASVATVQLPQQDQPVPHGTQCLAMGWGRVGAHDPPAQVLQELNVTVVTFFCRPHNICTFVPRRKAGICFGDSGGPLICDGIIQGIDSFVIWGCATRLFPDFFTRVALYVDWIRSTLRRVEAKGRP

[2] = biological target: T3, NAD-dependent protein deacetylase sirtuin-2 (Homo sapiens, UniProt Q8IXJ6); assay: Inhibition of SIRT2 (unknown origin) activity
T3 sequence (Q8IXJ6 whole entry): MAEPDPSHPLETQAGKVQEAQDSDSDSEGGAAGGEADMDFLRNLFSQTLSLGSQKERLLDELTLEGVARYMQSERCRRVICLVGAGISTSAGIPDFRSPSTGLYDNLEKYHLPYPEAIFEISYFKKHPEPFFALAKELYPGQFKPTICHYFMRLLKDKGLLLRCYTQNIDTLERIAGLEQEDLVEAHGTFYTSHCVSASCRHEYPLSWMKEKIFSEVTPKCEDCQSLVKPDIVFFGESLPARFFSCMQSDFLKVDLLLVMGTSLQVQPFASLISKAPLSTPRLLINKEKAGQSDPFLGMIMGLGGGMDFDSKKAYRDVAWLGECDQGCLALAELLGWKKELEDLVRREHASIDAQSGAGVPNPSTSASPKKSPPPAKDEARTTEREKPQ

SMILES | pIC50 (Neutrophil elastase) | pIC50 [1] | pIC50 (Neutrophil) | inhibition (Homo sapiens) | pIC50 (Myeloblastin) | pIC50 [2]
COC(=O)[C@@H](NC(=O)c1ccccc1/N=C/c1ccccc1O)c1ccccc1 | < 4.30 | 5.06 | < 5.00 |  |  | 
COC(=O)[C@H](Cc1ccccc1)NC(=O)c1ccccc1/N=C/c1c(O)ccc2ccccc12 | < 4.30 | 5.68 | 5.53 |  |  | 
O=C(N[C@H](C(=O)O)c1ccccc1)c1ccccc1/N=C/c1c(O)ccc2ccccc12 | < 4.30 | < 5.00 | 5.60 |  |  | 
COC(=O)[C@@H](NC(=O)c1ccccc1/N=C/c1c(O)ccc2ccccc12)c1ccccc1 | < 4.30 | 5.42 | 5.45 |  |  | 
CC(NC(=O)c1ccccc1/N=C/c1c(O)ccc2ccccc12)c1ccccc1 (configuration not stated) [SIRTINOL] | 4.61 | 5.72 | < 5.00 |  |  | 
C[C@@H](NC(=O)c1ccccc1/N=C/c1c(O)ccc2ccccc12)C1CCCCC1 | < 4.30 | < 5.00 | < 5.00 |  |  | 
O=C(N[C@H](Cc1ccccc1)C(=O)O)c1ccccc1/N=N/c1c(O)ccc2ccccc12 | 4.68 | 5.81 | 5.79 |  |  | 
COC(=O)[C@H](NC(=O)c1ccccc1/N=C/c1ccccc1O)c1ccccc1 | < 4.30 | 5.30 | 5.36 |  |  | 
COC(=O)[C@@H](NC(=O)c1ncccc1/N=N/c1c(O)ccc2ccccc12)c1ccccc1 | 4.65 | < 5.00 | < 5.00 |  |  | 
CC(NC(=O)c1ccccc1NCc1c(O)ccc2ccccc12)c1ccccc1 (configuration not stated) | 4.58 | 5.19 | < 5.00 |  |  | 
COC(=O)[C@H](Cc1ccccc1)NC(=O)c1ccccc1/N=N/c1c(O)ccc2ccccc12 | 4.51 | < 5.00 |  |  |  | 
O=C(N[C@@H](Cc1ccccc1)C(=O)O)c1ccccc1/N=N/c1c(O)ccc2ccccc12 | 4.68 | 5.97 | 5.88 |  |  | 
CC(NC(=O)c1ccccc1/N=C/c1ccccc1O)c1ccccc1 (configuration not stated) | < 4.30 | < 5.00 | 5.22 |  |  | 
COC(=O)[C@H](NC(=O)c1ccccc1/N=C/c1c(O)ccc2ccccc12)c1ccccc1 | 4.41 | 5.75 | 5.25 |  |  | 
COC(=O)[C@@H](Cc1ccccc1)NC(=O)c1ccccc1/N=C/c1c(O)ccc2ccccc12 | < 4.30 | 5.80 | 5.37 |  |  | 

The remaining lines, values ahead:

pIC50 (Neutrophil elastase) | pIC50 [1] | pIC50 (Neutrophil) | inhibition (Homo sapiens) | pIC50 (Myeloblastin) | pIC50 [2] | SMILES
4.69 | 5.63 | 5.95 |  |  |  | O=C(N[C@@H](C(=O)O)c1ccccc1)c1ccccc1/N=N/c1c(O)ccc2ccccc12
4.72 | < 5.00 | < 5.00 |  |  |  | COC(=O)[C@H](NC(=O)c1ccccc1/N=N/c1c(O)ccc2ccccc12)c1ccccc1
4.92 | < 5.00 | < 5.00 |  |  |  | CC(NC(=O)c1ccccc1/N=N/c1c(O)ccc2ccccc12)c1ccccc1 (configuration not stated)
4.74 | < 5.00 | < 5.00 |  |  |  | COC(=O)[C@@H](NC(=O)c1ccccc1/N=N/c1c(O)ccc2ccccc12)c1ccccc1
4.72 | < 5.00 |  |  |  |  | COC(=O)[C@@H](Cc1ccccc1)NC(=O)c1ccccc1/N=N/c1c(O)ccc2ccccc12
5.31 | 5.73 | 6.05 | inactive | 4.68 | 5.62 | O=C(N[C@H](C(=O)O)c1ccccc1)c1ncccc1/N=N/c1c(O)ccc2ccccc12
4.78 | 5.65 | 5.69 |  |  |  | O=C(N[C@H](C(=O)O)c1ccccc1)c1ccccc1/N=N/c1c(O)ccc2ccccc12
